The test system of one series is CHO‐K1 cells. The series is described as follows: FITC-Arg8 uptake in live cells, confocal imaging. Format: cell-based, Chinese hamster. The note with it: 30 min, 37 °C; for FITC-Arg8 uptake promoted by carrier: carrier 5 µM, 5 min, then FITC-Arg8 5 µM, four biological replicates. The method, then: CHO‐K1 cells were plated into µ‐Slide 8‐well plates (ibidi) at a density of ≈1 × 10^5 cells per well (per 1 mL) and incubated for 24 h in Ham's F‐12 medium containing 10% v/v fetal bovine serum and 1.0% penicillin streptomycin at 37 °C in a 5% CO2 atmosphere. The cells were washed twice with Hank's buffer, incubated for 5 min at 37 °C in Ham's F‐12 medium without phenol red with carrier (5 µM), and subsequently in Ham's F‐12 medium without phenol red with 5 µM FITC‐Arg8 for 30 min at 37 °C. Cells in the absence of carrier were used as control. The cells were washed twice with Hank's buffer containing 100 µg mL^−1 heparin and then washed twice with Ham's F‐12 medium without phenol red. The nuclear staining was performed by incubating the cells with 10 µg mL^−1 Hoechst 33 342 (bis‐benzimide H33342 trihydrochloride) for 10 min at 37 °C. Cells were directly imaged as stated above.

Series [1] can be described thus: CF transport assay in EYPC⊃CF vesicles (carrier activity). Format: biochemical. Set-up: key to Carrier activity: ‐ – ‐: No detectable activity at pH 5.5 and 7.4. The settings on record: for EC50: 5% error (SD); for Carrier activity: EYPC vesicles, pH 5.5 and 7.4, cargos heptaArg, protamine, polyArg ([AlMo6]: heptaArg and protamine only); for Transport activity (in words): EYPC⊃CF vesicles, neutral pH, carrier then cargo. The text has this:
The capability of POMs to act as membrane carriers was explored first in large unilamellar vesicles (LUVs) loaded with carboxyfluorescein (CF).^[ [54], [55] ^] We selected […] representative cationic peptides, heptaarginine (heptaArg), heptalysine (heptaLys), protamine, and polyarginine (polyArg), as test cargos. Inside the LUVs, the CF dye was encapsulated at self‐quenching concentrations. With a suitable carrier, heptaArg can be taken up into the vesicles, bind with entrapped CF, and shuttle back to the exterior, diluting the previously quenched CF, and thereby restoring its fluorescence (Figure 1c). In the time‐resolved fluorescence experiments (Figure 2a), to test whether a particular POM acts as molecular carrier, the CF emission was continuously monitored during the addition of the inorganic carrier (t = 60 s) and after injection of the impermeable selected cargo (t = 120 s). Toward the end of the experiment (t = 600 s), the surfactant Triton X‐100 was added to release all the entrapped CF and allow normalization of the intensity data.
A thin lipid film was prepared by evaporating a lipid solution of EYPC (egg yolk phosphatidylcholine, 25 mg) in CHCl3 (1 mL) with a stream of nitrogen and then dried in vacuo overnight. The dry film was rehydrated with 1 mL buffer (50 mM CF, 10 mM Hepes, pH 7.4 or 50 mM CF, 10 mM Tris, pH 7.4) for 30 min at room temperature, subjected to freeze–thaw cycles (7 times) and extrusions (15 times) through a polycarbonate membrane (pore size 100 nm). Extravesicular components were removed by size exclusion chromatography (NAP‐25 column Sephadex G‐25 DNA grade) with 10 mM Hepes, 107 mM NaCl, pH 7.4, or 10 mM Hepes, 107 mM NaCl, pH 7.4. Phospholipid concentration was calculated by the Stewart assay.^[ [81] ^]
Acidic vesicles were prepared analogously but the rehydration and elution buffer were 50 mM CF, 10 mM Mes, pH 5.5 and 10 mM Mes, 107 mM NaCl, pH 5.5. respectively.
Vesicles stock solutions (5–10 µL) were diluted with the corresponding buffer in a disposable plastic cuvette and gently stirred (total volume 2000 µL, final lipid concentration 13 µM). Carboxyfluorescein fluorescence was monitored at λ em = 517 nm (λ ex = 492 nm) as a function of time after addition of POMs at 60 s, analyte at 120 s and Triton X‐100 (24 µL 1.2% wt/vol) at 600 s to lyse the vesicles, for calibration. Fluorescence intensities were normalized to fractional emission as (1) It=It−I0/I∞−I0 where I 0 = I t before POM addition and […] after lysis. For Hill analysis, I t before lysis was defined as transport activity, Y, and plotted against POM concentration, c, and fitted to the Hill Equation (2), to afford the activity in absence of POM, Y 0, the maximal activity, Y max, the concentration needed to achieve 50% of maximal activity, EC 50, and the Hill coefficient, n (2) Y=Y0+Ymax−Y0/1+EC50/c^n
In the transport measurements, where different carriers (POMs) are tested with the same cargo, the activator efficiency (E) is determined by their capacity to transport the impermeable cargo to the intravesicular region and is characterized by Y max, its maximal activity, and EC 50, the effective activator concentration. An ideal carrier reaches high Y max at low EC 50. To count both factors, the activator efficiency is defined as (3) E=YmaxpEC50/f were pEC 50 is the negative logarithm of the EC 50, and f a scaling factor, which was set to 20.6 to calibrate the highest (previously known) activation efficiency, E, as 10.^[ [55] ^]

Series [2] is described as follows: Hydrolysis/stability of POMs in buffer by NMR. The settings on record: for Hydrolysis/stability pH 7.5: 10 mM Hepes or Tris, pH 7.4; for Hydrolysis/stability pH 7.5 / Hydrolysis/stability pH 5.5: 107 mM NaCl, NMR, long-term (24 h and longer); for Hydrolysis/stability pH 5.5: 10 mM Mes; for Stability at pH 7.5 by NMR (in words): Hepes or Tris-HCl pH 7.5, 27Al, 31P or 183W NMR, fresh and aged 1-3 days.
Description: First, their long‐term (24 h and longer) fate in aqueous solution (slightly acidic and neutral) was investigated by applying the active NMR nuclei in their composition (Table S9 and Figures S24–S37, see the Supporting Information for details).
NMR-spectroscopic characterization of identity and stability
NMR spectroscopy for all POMs tested was performed under experimental conditions.

For series [3], the system named is methicillin-resistant Staphylococcus aureus (SR3605, ATCC43300). The note with it: in combination with β-Lactamase, Mueller-Hinton broth, pH 7.4, 34 °C, cited from earlier work. The text has this:
page 4: 2. Literature survey Table S1. Survey of experimentally proven membrane penetration of POMs according to a search in Scopus (“polyoxometalate” and “membrane penetration”) up to the submission date of the manuscript.

The nature of series [4]: Membrane disruption of liposomes by POM alone (CF fluorescence, DLS). The settings on record: higher than 100 µM POM, 10 mM Tris, 107 mM NaCl, pH 7.4. It counts as biochemical. How it is done: It should be noted that the addition of POMs alone (without cargo) retained the stability of the liposomes in the studied concentration range (up to 100 µM), that is, neither an increase in CF fluorescence nor changes in size distribution as obtained by dynamic light scattering experiments (DLS, see Figure S4, Supporting Information) were observed, which would have signaled membrane rupture. These negative controls allowed us to proceed to the carrier experiments, with added cargo.
DLS experiments of the vesicles were carried out on a Malvern Instruments DTS Nano 2000 Zeta‐Sizer. A POM concentration of 100 µM was chosen as default, since this is the highest concentration at which membrane transport was evaluated. The cargo concentration was set to be same as in the transport experiments, namely 10 µM for heptaarginine, 1 µM for protamine, and 0.1 µM for polyarginine. Note that the POMs themselves, with a size of ≈1 nm, fall below the detection limit (>10 nm) of the DLS instrument.
Figure S3. Transport activity, Y, for polyarginine (0.1 µM) in EYPC[…]CF liposomes as a function of the concentration of the different evaluated POMs. Solid lines correspond to the resulting fit with the Hill equation. Blue squares are data obtained at neutral pH, and red stars data obtained at acidic pH.
Table S4. Membrane transport parametersa) of active POMs at neutralb) and acidicc) pH.
HeptaArgd) Protaminee) PolyArgf) carrier pH Hydrolysis/Stability
Ymax [%]g) EC50h) [µM] E i) Ymax [%] EC50 [µM] E Ymax [%] EC50 [µM] E […]
Figure S5. Transport kinetics (left pannels), dose response curves (middle pannels) for cargo transport, and size distribution (by DLS, right pannels) for [PW12]3‒ (top) and [SiW12]4‒ (bottom), measured with EYPC[…]CF liposomes at pH 7.4, but preserving the POM solution at pH 1.2 before addition. As shown in panel a, the addition of [PW12]3‒ alone gave a fluorescence increase, pointing to membrane disruption, which was confirmed by DLS (panel c). […]

Setting [5] is: CF assay, EYPC LUVs, 0.1 µM polyArg, pH 7.4, read-out: PolyArg EC 50.
The mark [6] stands for this setting: CF assay, EYPC LUVs, 0.1 µM polyArg, pH 7.4, ±2% error (SD).
Setting [7] is: EYPC LUVs, 0.1 µM polyArg, pH 7.4, f = 20.6, 10% error.

Like-named read-outs stand apart in the source and are kept apart here.

This is an account of results in paper PMC11475408, “All‐Inorganic Polyoxometalates Act as Superchaotropic Membrane Carriers” (Advanced Materials (Deerfield Beach, Fla.), 2023).

Turning to “5(6)‐fluorescein isothiocyanate‐labelled octaarginine [FITC‐Arg8]”, the “Uptake of FITC-Arg8 without carrier” value with CHO‐K1 cells (FITC-Arg8 5 µM) was “minor punctate fluorescence”.
Regarding `O=C(O)CCCc1ccc2ccc3cccc4ccc1c2c34` [PyBu^‒, pyrenebutyrate, reference compound], the “HeptaArg Y max” value in series [1] (CF assay, EYPC LUVs, 13 µM lipid, 10 µM heptaArg, 10 mM Hepes or Tris, 107 mM NaCl, pH 7.4, 10 min, Hill fit, triplicates, ±2% error (SD)) is recorded as 100%. The EC50 was found to be 12 µM in series [1] (setting [5]); 39 µM in series [1] (CF assay, EYPC LUVs, 1 µM protamine, pH 7.4, read-out: Protamine EC 50); 100 µM in series [1] (CF assay, EYPC LUVs, 10 µM heptaArg, pH 7.4, carrier concentration for 50% of Ymax, read-out: HeptaArg EC 50). The “PolyArg Y max” value in series [1] (setting [6]) is given as 91%. Moreover, in series [1] (CF assay, EYPC LUVs, 1 µM protamine, pH 7.4, ±2% error (SD)), the “Protamine Y max” value is reported as 77%. Moreover, the “PolyArg E (activation efficiency)” value in series [1] (setting [7]) was 8.5. Also, the “Protamine E (activation efficiency)” value in series [1] (EYPC LUVs, 1 µM protamine, pH 7.4, f = 20.6, 10% error) is on record as 5.3. Also, in series [1] (EYPC LUVs, 10 µM heptaArg, pH 7.4, E = Ymax(pEC50/f), f = 20.6, 10% error), the “HeptaArg E (activation efficiency)” value turned out to be 4.8. In addition, the “Efficacy when the sequence of addition was inverted” value in series [1] (heptaarginine 10 µM, cargo before carrier (Figure S6)) is “significantly reduces its activity”. Besides, in the series on CHO‐K1 cells, the “FITC-Arg8 uptake promoted by carrier” value is “did not achieve efficient uptake”. In addition, in series [2], the “Hydrolysis/stability pH 7.5” value is listed as “Stable”. Also, the “Hydrolysis/stability pH 5.5” value in series [2] is recorded as “Stable”.
On to `Cc1onc(-c2ccccc2)c1C(=O)N[C@@H]1C(=O)N2[C@@H]1SC(C)(C)[C@@H]2C(=O)O` [oxacillin], for which the MIC in series [3] (ref [8]) and in series [3] (ref [9]) was 256 µg/mL in each case.
“(C4H12N)4[α‐HAl^IIIGe^IVW^VI 11O39(H2O)]·11H2O [[AlGeW11]^5‒]”: in series [1], the “Carrier activity” value is reported as “‐ – ‐ ^k)”. In series [2], the “Hydrolysis/stability pH 7.5” value is listed as “Stable” and the “Stability at pH 7.5 by NMR (in words)” value was “integrity at pH 7.5”.
Regarding B12Br12 ^2‒ [reference compound], the “FITC-Arg8 uptake promoted by carrier” value in the series on CHO‐K1 cells is listed as “did not achieve efficient uptake”. Also, in series [2], the “Hydrolysis/stability pH 7.5” value is “Stable” and the “Hydrolysis/stability pH 5.5” value was “Stable”.
Take “K4[α‐Si^IVW^VI 12O40]·14H2O [[SiW12]^4‒]”: in series [1], the “Carrier activity” value is reported as “‐ – ‐ ^k) , ^m)” and the “Transport activity (in words)” value is on record as “neither an interaction with the membrane nor cargo transport”. The “Cargo transport with POM solution kept at pH 1.2” value in series [1] (EYPC⊃CF liposomes at pH 7.4, POM solution preserved at pH 1.2 before addition) is “showed the desired cargo transport at acidic pH, without membrane disruption”. The “Stability at pH 7.5 by NMR (in words)” value in series [2] was “[SiIVWVI11O39]8‒ is predominant”. Moreover, the “Vesicle lysis at higher concentrations” value in series [4] is “led to vesicle lysis”.
Consider “Na3[Al^III(OH)6Mo^VI 6O18]·2H2O [[AlMo6]^3‒]”, for which, in series [1] (setting [5]), the EC50 is 11 µM. The “PolyArg Y max” value in series [1] (setting [6]) is given as 33%. The “PolyArg E (activation efficiency)” value in series [1] (setting [7]) turned out to be 3.1. Besides, in series [1], the “Carrier activity” value is “‐ – ‐ ^k)” and the “Transport activity (in words)” value was “incipient transport activity, but only for polyarginine as cargo”. The “Hydrolysis/stability pH 7.5” value in series [2] is “Stable”.
Turning to “Na5[α‐Al^IIIW^VI 12O40]·12H2O [[AlW12]^5‒]”, the “Carrier activity” value in series [1] is “‐ – ‐ ^k)”. In series [2], the “Hydrolysis/stability pH 7.5” value is “Stable” and the “Stability at pH 7.5 by NMR (in words)” value was “stable at pH 7.5”.

Usually MIC stands for the least concentration at which growth counts as inhibited.
